Test [1] addresses T1, Ga3PDHase (phosphorylating NAD+-dependent glyceraldehyde-3-phosphate dehydrogenase, EC 1.2.1.12) (Triticum aestivum, UniProt A5YVV3).
T1 construct: gene GAPC; recombinant wheat gapC (NCBI EF592180), homotetramer, E. coli
Briefly: Kd from protection against H2O2 inactivation in presence of NAD+ (Mildvan and Leigh plot); S0.[…] by enzyme kinetics. The format is biochemical.

In test [2] the target is T2, np-Ga3PDHase (non-phosphorylating NADP+-dependent glyceraldehyde-3-phosphate dehydrogenase, EC 1.2.1.9) (Triticum aestivum, UniProt Q8LK61).
T2 construct: gene GAPN; recombinant wheat enzyme (NCBI DQ268762), pRSETB/TagapN, E. coli
T2 sequence (Q8LK61 1-496): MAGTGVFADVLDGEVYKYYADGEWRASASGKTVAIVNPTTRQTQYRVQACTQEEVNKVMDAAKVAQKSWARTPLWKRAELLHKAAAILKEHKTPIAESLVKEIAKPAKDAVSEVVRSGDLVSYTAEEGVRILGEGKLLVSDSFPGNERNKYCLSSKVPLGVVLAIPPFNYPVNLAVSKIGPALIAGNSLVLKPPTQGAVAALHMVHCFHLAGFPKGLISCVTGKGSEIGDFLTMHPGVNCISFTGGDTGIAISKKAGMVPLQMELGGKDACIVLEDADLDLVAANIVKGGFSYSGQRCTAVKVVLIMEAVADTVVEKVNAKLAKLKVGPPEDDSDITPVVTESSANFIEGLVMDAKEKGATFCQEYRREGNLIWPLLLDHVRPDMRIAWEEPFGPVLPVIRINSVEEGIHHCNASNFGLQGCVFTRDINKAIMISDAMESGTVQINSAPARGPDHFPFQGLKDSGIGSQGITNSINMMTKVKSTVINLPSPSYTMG
Nature of the test: Kd from protection against H2O2 inactivation of purified enzyme (Mildvan and Leigh plot). The format is biochemical.

T1 sequence (A5YVV3 1-337): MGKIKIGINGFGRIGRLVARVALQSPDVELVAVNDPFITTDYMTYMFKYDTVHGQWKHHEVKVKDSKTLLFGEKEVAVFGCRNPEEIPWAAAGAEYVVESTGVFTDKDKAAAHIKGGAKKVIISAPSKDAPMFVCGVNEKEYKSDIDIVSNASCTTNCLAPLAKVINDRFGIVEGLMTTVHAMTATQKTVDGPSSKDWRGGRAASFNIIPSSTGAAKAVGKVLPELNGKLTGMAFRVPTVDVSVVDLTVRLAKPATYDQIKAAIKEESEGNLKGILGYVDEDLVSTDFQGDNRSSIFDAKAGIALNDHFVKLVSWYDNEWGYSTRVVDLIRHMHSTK

As usually defined, the Kd is a measure of binding affinity in units of concentration. Consider `O=C[C@H](O)COP(=O)(O)O` [glyceraldehyde-3-phosphate], for which, in test [1], the dissociation constant (Kd) turned out to be 115 µM. `NC(=O)c1ccc[n+]([C@@H]2O[C@H](COP(=O)([O-])OP(=O)(O)OC[C@H]3O[C@@H](n4cnc5c(N)ncnc54)[C@H](OP(=O)(O)O)[C@@H]3O)[C@@H](O)[C@H]2O)c1` [NADP^+] came in with a Kd in test [2] of 2.5 µM.

The record behind these values is PMC3645732, “A Differential Redox Regulation of the Pathways Metabolizing Glyceraldehyde-3-Phosphate Tunes the Production of Reducing Power in the Cytosol of Plant Cells” (International Journal of Molecular Sciences, 2013).
